Bounds are passed on as bounds.

A short description of data set [1]: UV-visible absorption spectra in different solvents. Type of data set: physicochemical. Also noted: λmax: unit not given beside the values. The following applies: 10 µM. As to the method: The UV-visible (10 µM) and fluorescence emission spectra (5 µM) of phthalocyanines in different solvents were measured using SpectraMax M4 microplate reader (Molecular Devices, CA). UV-visible spectra were collected for wavelengths ranging from 350–800 nm and molar extinction coefficient (ε) for each compound was determined. Meanwhile, the fluorescence emission spectra of the compounds were recorded at 650–800 nm following excitation at their respective maximal absorption (λmax). The fluorescence quantum yields (φF) were calculated by using the following formula: φF = φFstd (F×Astd)/[…] where, F and Fstd refer to the area under the fluorescence curve of sample and standard, respectively. A and Astd refer to the absorbance of sample and standard compound at their excitation wavelengths respectively. ZnPcS4 with φFstd = 0.07 (DMSO) was used as reference.

Details of data set [2]: method as in earlier work. To be noted: in DMSO; reference standard value; cited from earlier work.
The subject of another data set is CAM vasculature. In words: PDT-induced vascular occlusion in CAM model. Type of data set: in vivo, Lohmann Brown chicken. To be noted: for Occlusion score: 10 nmol/embryo i.v., mean ± SEM of ten embryos, scale of Table 1. How it is done: Freshly fertilized eggs from Lohmann Brown chicken variety (Hong Hing Sdn. Bhd, Selangor, Malaysia) were incubated with the narrow apex down in a 90° swinging Octagon 40DX incubator (Brinsea Products Inc., Standford, England) at 37°C and 65% relative humidity. On embryo development day (EDD) three, an eggshell opening of about 4 mm in diameter was bored at the apex and sealed with adhesive tape to avoid contamination and desiccation of the egg contents. The eggs were further incubated in stationary position with the apex upright until ready for use at EDD-9.
For vascular occlusion study, the egg opening was extended to ∼30 mm in diameter on EDD-9. Embryos were intravenously administered with a single bolus of 10 nmol/embryo of phthalocyanine in dosing vehicle (5% CrEL, 5% EtOH in saline) at the CAM main vasculature. One min after injection, a site with blood vessel diameter between 5–100 µm was irradiated with a light dose of 5 J/cm^2 or 10 J/cm^2. Irradiation was performed with light of 600–800 nm wavelength with a fluence rate of 11.5 mW/cm^2 over an irradiation area of 1.13 mm^2. Fluorescence angiograms were performed immediately to assess the PDT-induced vasculature damage. Blood vessels were perfused with 20 µl of 25 mg/ml FITC-dextran followed by injection of Indian ink into the extra-embryonic cavity to decrease the embryo’s interfering fluorescence from deeper located vessels. The vasculature network at the site of irradiation was illuminated by exciting FITC at 465–496 nm wavelengths on the fluorescence microscope. The vasculature network was imaged and the extent of damage induced by PDT was scored using a previously defined arbitrary damage scale from 1 to 5 as listed in Table 1 [26]. Generally, the damage on smaller vessels would have lower score whereas the damage on larger blood vessels would have higher score, depending on the size and degree of damage that was caused. At least 10 embryos were assessed for each treatment group.

In data set [3] the test system is HCT-116 cells human colon carcinoma. In words: In vitro phototoxicity assay (MTT). It counts as cell-based. The following applies: 2 h incubation, MTT after 48 h. How it is done: (§1) MCF-7 human breast carcinoma and HCT-116 cells human colon carcinoma cell lines were obtained from American Tissue Culture Collection (Virginia, USA), whereas HSC-2 human oral squamous carcinoma cell line was purchased from Health Science Research Resources Bank, (Osaka, Japan). Approximately 3000–4000 cells/well were seeded in 96-well plate and incubated overnight for cell adherence and growth. Cells were then treated with phthalocyanines 1, 2, 3 or ZnPcS4 with concentrations ranging from 0.01 to 100 µM and were incubated for 2 h before irradiated with 4.0 J/cm^2 of light filtered with Roscolux #26 Light Red (>580 nm) (Rosco, NY) membrane filter at a fluence rate of 7.5 mW/cm^2 for 10 min. Illumination was performed in the presence of photosensitizer in the media. The cells were further incubated for 48 h before cell viability was assessed by the MTT assay. For MTT assay, 20 µl of MTT solution (5 mg/ml) were added to each well and incubated for 4 h. The medium was removed and replaced with 100 µl of DMSO to dissolve the formazan crystal formed and the absorbance was read at 570 nm with a microplate reader. The percentage of cell viability was determined relative to untreated control and the half maximal inhibitory concentration (IC50) values were determined. Dark toxicity for each phthalocyanine was also determined in parallel.

Data set [4] relates to MCF-7 human breast carcinoma. Kind of data set: In vitro phototoxicity assay (MTT). Type of data set: cell-based. To be noted: 2 h incubation, MTT after 48 h. As to the method: as §1
The test system of data set [5] is HSC-2 human oral squamous carcinoma cell line. In words: In vitro phototoxicity assay (MTT). It counts as cell-based. To be noted: 2 h incubation, MTT after 48 h. How it is done:
as §1

A further data set relates to HSC-2 cells. In words: Cellular uptake study by flow cytometry. Type of data set: cell-based, human. The following applies: 10 µM. As to the method:
HSC-2 cells were plated overnight in 6-well plates (1×10^5 cells/well) in MEM media. Cells were incubated with 10 µM of phthalocyanine 1, 2, 3 or ZnPcS4 for various time intervals. Following incubation, cells were washed twice with PBS, collected by trypsinization and resuspended in phenol red-free MEM media. The mean fluorescence signal for 10 000 cells were analyzed using FACSCalibur flow cytometer (Becton Dickinson, NJ) with FL4 channel (excitation 635 nm, bandpass filter 661/16 nm) and data collected were translated into relative concentration using the formula F = k * QE * Po * (2.303 *ε * b * c). All assays were performed in triplicates. F = measured fluorescence intensity, k = geometric instrumental factor, QE = quantum efficiency (ratio of photons being emitted to photons being absorbed) and Po = radiant power of the excitation source (wavelength-dependent molar absorptivity coefficient). b and c are as being used in the Beer-Lambert law, where b = path length, and c = concentration of the analyte.
(In flow cytometry, cells or beads pass a laser one at a time.)

The nature of data set [6]: Log P partition coefficient, shake-flask method. Type of data set: physicochemical. To be noted: Octanol-1/H2O, room temperature. How it is done:
Phthalocyanines were prepared in presaturated Octanol-1 (Oct) or H2O depending on their solubility (ZnPcS4, phthalocyanines 1 and 2 in H2O; phthalocyanine 3 in Oct) with concentrations ranging from 1–20 µM. […] The glass tube was left to stand for 1–2 h at room temperature. The absorbance of the phthalocyanine was measured before addition of the other solvent and also after incubation. To obtain log P value, calculations were done using the formula: log P = log [COct/CH2O] where, COct and CH2O represent concentrations of phthalocyanine in Oct and H2O, respectively. Partition coefficient (log P) is defined as the ratio of concentrations of a dissolved substance in a two-phase system consisting of two immiscible solvents e.g. n-octanol and water at equilibrium. It reflects the level of hydrophilicity and hydrophobicity of a compound, which determines the permeability of the compound across the lipid bilayers of cell membrane. In this study, the log P values of the phthalocyanines were measured using the shake-flask method.

Data set [7] concerns MCF-7, HCT-116 and HSC-2 cancer cell-lines. In words: In vitro phototoxicity assay (MTT), panel of cancer cell lines. To be noted: 4.0 J/cm^2. Type of data set: cell-based, human. How it is done: as §1, with “Cells were then treated with phthalocyanines 1, 2, 3 or ZnPcS4 with concentrations ranging from 0.01 to 100 µM and were incubated for 2 h before irradiated with 4.0 J/cm^2 of light filtered with Roscolux #26 Light Red (>580 nm) (Rosco, NY) membrane filter at a fluence rate of 7.5 mW/cm^2 for 10 min.” left out

On the set-up of data set [8]: method as in PMID 11883602. To be noted: in alcohol; reference standard; cited from earlier work.

The term IC50 denotes the concentration that inhibits the measured activity by half. Usually log P stands for a log measure of how a compound divides between an organic and an aqueous phase. As to “tetrasulfonated zinc (II) phthalocyanine [ZnPcS4]”, the ε in data set [1] (DMSO) is reported as 114 000 M^−1cm^−1; in data set [1] (Ethanol), 27 000 M^−1cm^−1; in [1] (PBS+2% Triton x-100), 20 000 M^−1cm^−1; in data set [1] (PBS), 23 000 M^−1cm^−1. Further, the λmax in data set [1] (DMSO) turned out to be 676; in [1] (Ethanol), 666; in [1] (PBS+2% Triton x-100), 606; in data set [1] (PBS), 606. Also, in data set [2], the “φF (fluorescence quantum yield)” value is listed as 0.07. For the same molecule, the Occlusion score with CAM vasculature (5 J/cm^2, 600–800 nm) is recorded as 0 ± 0.0; in the data set with CAM vasculature (10 J/cm^2, 600–800 nm), 0 ± 0.2. For the same molecule, the “vascular occlusion effect (in words)” value in the data set with CAM vasculature (10 nmol/embryo, 5 J/cm^2) is on record as “failed to demonstrate vascular occlusion effects”; in the data set with CAM vasculature (similar experimental conditions, light dose not stated at the place (abstract)), “no detectable vascular occlusion”. For the same molecule, the IC50 in [3] (0 J/cm^2 (dark toxicity)), in data set [3] (4.0 J/cm^2 (>580 nm)), in [4] (0 J/cm^2 (dark toxicity)), in data set [4] (4.0 J/cm^2 (>580 nm)), in [5] (0 J/cm^2 (dark toxicity)) and in data set [5] (4.0 J/cm^2 (>580 nm)) was above 100 µM throughout. Besides, the “cellular uptake (in words)” value with HSC-2 cells was “poorly taken up by cells”. Moreover, the “log P” value in data set [6] is given as −1.7±0.4. Besides, the “phototoxicity IC50, range over MCF-7, HCT-116 and HSC-2” value in data set [7] (tested up to 100 µM) is “failed to yield determinable IC50 values”. Moreover, the “loss of cell viability” value in data set [7] (treatment concentrations of up to 100 µM) is “no significant loss of cell viability”.

With `C=Cc1c(C)c2cc3nc(c4c5[nH]c(cc6nc(cc1[nH]2)C(C)=C6CC)c(C)c5C(=O)[C@@H]4C(=O)OC)[C@@H](CCC(=O)O)[C@@H]3C` [Pha, pheophorbide a], the “singlet oxygen quantum yield” value in data set [8] was 0.52.

(Values after PMC4026539, “Improved Photodynamic Efficacy of Zn(II) Phthalocyanines via Glycerol Substitution” (PLoS ONE, 2014).)
